Measured values: US8778938B2, “Hepatitis C virus inhibitors” (priority 2010, dated 2014)

Assays:
HCV 1b genotype replicon = experiment: HCV replicon assay, qRT-PCR (HCV RNA detection), genotype 1b replicon EC50; type: cell-based; settings: Hepatitis C virus, read-out: 1b EC50
From the text: HCV replicon cell lines (kindly provided by R. Bartenschlager) isolated from colonies as described by Lohman et al. (Lohman et al. (1999) Science 285: 110-113, expressly incorporated by reference in its entirety) and used for all experiments. The HCV replicon has the nucleic acid sequence set forth in EMBL Accession No.: AJ242651, the coding sequence of which is from nucleotides 1801 to 8406.
The coding sequence of the published HCV replicon was synthesized and subsequently assembled in a modified plasmid pBR322 (Promega, Madison, Wis.) using standard molecular biology techniques. […]
EC50 values of single agent compounds were determined by HCV RNA detection using quantitative RT-PCR, according to the manufacturer's instructions, with a TAQMAN® One-Step RT-PCR Master Mix Reagents Kit (Cat #AB 4309169, Applied Biosystems) on an ABI Model 7500 thermocycler. EC50 values of combinations are similarly determined by HCV RNA detection using quantitative RT-PCR. The TAQMAN primers to use for detecting and quantifying HCV RNA obtained from Integrated DNA Technologies. HCV RNA is normalized to GAPDH RNA levels in drug-treated cells, which is detected and quantified using the Human GAPDH Endogenous Control Mix (Applied Biosystems, AB 4310884E). […] Chemical agent cytotoxicity is evaluated using an MTS assay according to the manufacturer's directions (Promega). […]

HCV 1a genotype replicon = experiment: HCV replicon assay, qRT-PCR (HCV RNA detection), genotype 1a replicon EC50; type: cell-based; settings: Hepatitis C virus, read-out: 1a EC50

COC(=O)N[C@H](C(=O)N1C[C@@H](C2CC2)C[C@H]1c1ncc(-c2ccc(-c3ccc(-c4cnc([C@@H]5C[C@H](C6CC6)CN5C(=O)[C@@H](NC(=O)OC)C(C)C)[nH]4)cc3)cc2)[nH]1)C(C)C [Compound A229]
EC50 (HCV 1b genotype replicon): 0.087 nM

COC(=O)N[C@H](C(=O)N1CCC[C@H]1c1nc(-c2ccc(-c3ccc(-c4c[nH]c([C@@H]5C[C@@]6(CCCO6)CN5C(=O)[C@@H](NC(=O)OC)C(C)C)n4)cc3)cc2)c[nH]1)C(C)C [Compound 83]
EC50 (HCV 1b genotype replicon): 0.019 nM

COC(=O)N[C@H](C(=O)N1CCC[C@H]1c1ncc(-c2ccc(-c3ccc(-c4cnc([C@@H]5C[C@H](C6CC6)CN5C(=O)[C@@H](NC(=O)OC)C(C)C)[nH]4)cc3)cc2)[nH]1)C(C)C [Compound A83]
EC50 (HCV 1a genotype replicon): 0.07 nM
